In publication PMC7216583 (Parasites & Vectors, 2020):
Structures can show the parent of a compound that is named as a salt. Where two headings read alike, the source gives them in different places.

Experiments:
ErbB4 = tested on: ErbB4; parameters: method as in S-inhibitor; settings: ref S-inhibitor; cited from earlier work
EGFR = tested on: EGFR; parameters: method as in S-inhibitor; settings: ref S-inhibitor; cited from earlier work
[1] = tested on: Toxoplasma gondii RH-2F tachyzoites; test: microbe, parasite or virus in culture; settings: 72 h
HER2/ErbB2 = tested on: HER2/ErbB2; parameters: method as in S-inhibitor; settings: ref S-inhibitor; cited from earlier work
ErbB3 = tested on: ErbB3; parameters: method as in S-inhibitor; settings: ref S-inhibitor; cited from earlier work
FGFR1 = tested on: FGFR1; parameters: method as in S-inhibitor; settings: ref S-inhibitor; cited from earlier work
FGFR3 = tested on: FGFR3; parameters: method as in S-inhibitor; settings: ref S-inhibitor; cited from earlier work
Plk1 = tested on: Plk1; parameters: method as in S-inhibitor catalog; settings: vendor brief description; ref S-inhibitor catalog; cited from earlier work
p110α = tested on: p110α; parameters: method as in S-inhibitor catalog; settings: vendor brief description; ref S-inhibitor catalog; cited from earlier work
[2] = target: HIV-1 gp120 / CD4 receptor; parameters: method as in S-inhibitor catalog; settings: in virus; vendor brief description; ref S-inhibitor catalog; read-out: EC50, inhibition of binding of HIV-1 gp120 to CD4 receptor; cited from earlier work
Akt2 = tested on: Akt2; parameters: method as in S-inhibitor catalog; settings: vendor brief description; ref S-inhibitor catalog; cited from earlier work
HeLa cell line = tested on: HeLa cell line; parameters: method as in S-inhibitor catalog; settings: vendor brief description; ref S-inhibitor catalog; read-out: IC50, inhibition of growth of HeLa; cited from earlier work
H14 cell line = tested on: H14 cell line; parameters: method as in S-inhibitor catalog; settings: vendor brief description; ref S-inhibitor catalog; read-out: IC50, inhibition of growth of H14; cited from earlier work
HL60 cell line = tested on: HL60 cell line; parameters: method as in S-inhibitor catalog; settings: vendor brief description; ref S-inhibitor catalog; read-out: IC50, inhibition of growth of HL60; cited from earlier work
MDA-MB-435 cell line = tested on: MDA-MB-435 cell line; parameters: method as in S-inhibitor catalog; settings: vendor brief description; ref S-inhibitor catalog; read-out: IC50, inhibition of growth of MDA-MB-435; cited from earlier work
hERG K+ channel = settings: cited from earlier work
PDE4B = tested on: PDE4B; parameters: method as in S-inhibitor catalog; settings: vendor brief description; ref S-inhibitor catalog; cited from earlier work
LXRα/SRC1 = tested on: LXRα/SRC1; parameters: method as in S-inhibitor catalog; settings: vendor brief description; ref S-inhibitor catalog; read-out: EC50, LXRα/SRC1 LiSA; cited from earlier work
LXRα-GAL4 = tested on: LXRα-GAL4; parameters: method as in S-inhibitor catalog; settings: vendor brief description; ref S-inhibitor catalog; cited from earlier work
ALK3 = tested on: ALK3; parameters: method as in S-inhibitor catalog; settings: vendor brief description; ref S-inhibitor catalog; cited from earlier work
ALK2 = tested on: ALK2; parameters: method as in S-inhibitor catalog; settings: vendor brief description; ref S-inhibitor catalog; cited from earlier work
[3] = read-out: Parasite inhibition (%) mean, preliminary screen, mean
[4] = read-out: Parasite inhibition (%) mean, preliminary screen of compound library, mean

## C=CC(=O)Nc1ccc2ncnc(Nc3ccc(OCc4cccc(F)c4)c(Cl)c3)c2c1 [AST-1306]
ErbB4
  IC50: 0.8 nM
EGFR
  IC50: 0.5 nM
[1]; [3]
  inhibition of growth at 5 µM: -33.7%

## CNC(=O)CN1CCC(Oc2cc3c(Nc4cccc(Cl)c4F)ncnc3cc2OC)CC1 [AZD8931]
HER2/ErbB2
  IC50: 3 nM
ErbB3
  IC50: 4 nM
[1]; [3]
  inhibition of growth at 5 µM: -20%

## CCN1CCN(c2ccc(Nc3cc(N(C)C(=O)Nc4c(Cl)c(OC)cc(OC)c4Cl)ncn3)cc2)CC1 [BGJ398 (NVP-BGJ398)]
FGFR1
  IC50: 0.9 nM
FGFR3
  IC50: 1 nM
[1]; [3]
  inhibition of growth at 5 µM: -8.9%

## CC[C@@H]1C(=O)N(C)c2cnc(Nc3ccc(C(=O)N[C@H]4CC[C@H](N5CCN(CC6CC6)CC5)CC4)cc3OC)nc2N1C(C)C [BI6727 (Volasertib)]
Plk1
  IC50: 0.87 nM
[1]; [4]
  inhibition of growth at 5 µM: 0.8%

## Nc1cc(C(F)(F)F)c(-c2cc(N3CCOCC3)nc(N3CCOCC3)n2)cn1 [BKM120 (NVP-BKM120)]
p110α
  IC50: […]
[1]; [4]
  inhibition of growth at 5 µM: 41.3%

## COc1cc[nH]c2ncc(C(=O)C(=O)N3CCN(C(=O)c4ccccc4)C[C@H]3C)c1-2 [BMS-806 (BMS 378806)]
[2]
  EC50: 0.85 to 26.5 nM
[1]; [4]
  inhibition of growth at 5 µM: 0.3%

## NC1(Cc2ccc(Cl)cc2)CCN(c2ncnc3[nH]ccc23)CC1 [CCT128930]
Akt2
  IC50: […]
[1]; [4]
  inhibition of growth at 5 µM: -25.6%

## C[C@@H]1CC[C@@]2(OC1)O[C@H]1C[C@H]3[C@@H]4CC=C5C[C@H](O[C@@H]6O[C@@H](CO)[C@@H](O[C@@H]7O[C@@H](C)[C@H](O)[C@@H](O)[C@@H]7O)[C@H](O)[C@H]6O[C@@H]6O[C@@H](C)[C@H](O)[C@@H](O)[C@H]6O)CC[C@]5(C)[C@@H]4CC[C@]3(C)[C@@H]1[C@H]2C [Dioscin (Collettiside III)]
HeLa cell line
  IC50: 4500 nM
H14 cell line
  IC50: 800 nM
HL60 cell line
  IC50: 7500 nM
MDA-MB-435 cell line
  IC50: 2600 nM
[1]; [4]
  inhibition of growth at 5 µM: 4.8%

## CC1=NN(c2ccc(C)c(C)c2)C(=O)/C1=N/Nc1cccc(-c2cccc(C(=O)O)c2)c1O [Eltrombopag (SB-497115-GR)]
hERG K+ channel
  IC50: 690 nM
[1]; [4]
  inhibition of growth at 5 µM: 0.7%

## COc1cccc(Nc2c(C(N)=O)cnc3c(C)cc(S(=O)(=O)c4cccc(C(=O)N(C)C)c4)cc23)c1 [GSK256066]
PDE4B
  IC50: 0.0032 nM
[1]; [4]
  inhibition of growth at 5 µM: 18.7%

## O=C(O)Cc1cccc(OCCCN(Cc2cccc(C(F)(F)F)c2Cl)CC(c2ccccc2)c2ccccc2)c1 [GW3965 HCl]
LXRα/SRC1
  EC50: 125 nM
[1]; [4]
  inhibition of growth at 5 µM: -20.1%
LXRα-GAL4
  EC50: 190 nM

## c1ccc2c(-c3cnn4cc(-c5ccc(N6CCNCC6)cc5)cnc34)ccnc2c1 [LDN193189]
ALK3
  IC50: […]
ALK2
  IC50: […]
[1]; [4]
  inhibition of growth at 5 µM: 21.7%
